“Also recorded” adds a separate entry of the source. Read-outs that look alike come from different tables or passages of the source.
Assays:
[1] = test system: male C57BL/6J mice; experiment: Head-twitch response (HTR) in mice; assay type: in vivo, mouse; conditions: for ED50: Mus musculus
Experimental: Male C57BL/6J mice (6-8 weeks old) from Jackson Labs (Bar Harbor, ME, USA) were used for the behavioral experiments. The mice were housed on a reversed light-dark cycle (lights on at 1900 h, off at 0700 h) in an AAAC-approved vivarium at the University of California San Diego. Mice were housed up to four per cage in a climate-controlled room and with food and water provided ad libitum except during behavioral testing. Testing was performed between 1000 and 1800 h (during the dark phase of the light-dark cycle). The studies were conducted in accordance with National Institutes Health (NIH) guidelines and were approved by the University of California San Diego Institutional Animal Care and Use Committee.
The mice were allowed to recover from the magnet implantation surgeries for at least 1 week prior to behavioral testing. HTR experiments were conducted in a well-lit room, and the mice were allowed to habituate to the room for at least 1 h prior to testing. Head twitches was assessed in a 12-cm diameter glass cylinder surrounded by a magnetometer coil. Coil voltage was low-pass filtered (2 kHz), amplified, and digitized (20-kHz sampling rate) using a Powerlab/8SP with LabChart v 7.3.2 (ADInstruments, Colorado Springs, CO, USA). […] HTR counts were analyzed using one-way ANOVAs. Dunnett's test was used for post hoc comparisons.

[2] = test system: 5-HT2A; experiment: Ca2+ flux assay, 5-HT2A; assay type: cell-based, human; conditions: Gq/11 Ca2+ mobilization; higher number = skewed towards 5-HT2A
Experimental: (§1) Cell lines were maintained in DMEM containing 10% FBS, 10 μg/mL Blasticidin (Invivogen), and 100 μg/mL Hygromycin B (GoldBio). At least 20-24 hours before the assay, receptor expression was induced with tetracycline ([…]) and cells were seeded into 384-well poly-L-lysine-coated black plates at a density of 7,500 cells/well in DMEM containing 1% dialyzed FBS. On the day of the assay, the cells were incubated for 1 h at 37° C. with Fluo-4 Direct dye (Invitrogen, 20 μl/well) reconstituted in drug buffer (20 mM HEPES-buffered HBSS, pH 7.4) containing 2.5 mM probenecid. Drug dilutions were prepared at 5X final concentration in McCorvy buffer (20 mM HEPES-buffered HBSS, 0).1% BSA, 0.01% ascorbic acid pH 7.4). After dye load, cells were allowed to equilibrate to room temperature for 15 minutes, and then placed in a FLIPR^TETRA fluorescence imaging plate reader (Molecular Devices). Fluorescence for the FLIPR^TETRA were programmed to read baseline fluorescence for 10 s (1 read/s), and afterward 5 μl of drug per well was added and read for a total of 5-10 min (1 read/s). Fluorescence in each well was normalized to the average of the first 10 reads for baseline fluorescence, and then either maximum-fold peak increase over basal or area under the curve (AUC) was calculated. […] Data was plotted and non-linear regression was performed using “log(agonist) vs. response” in Graphpad Prism 8 to yield Emax and EC50 parameter estimates.

[3] = molecular target: T1, 5-HT2C (Homo sapiens, UniProt P28335); experiment: Ca2+ flux assay, 5-HT2C; assay type: cell-based; parameters: expressed in transfected cells
T1 sequence (P28335 33-458): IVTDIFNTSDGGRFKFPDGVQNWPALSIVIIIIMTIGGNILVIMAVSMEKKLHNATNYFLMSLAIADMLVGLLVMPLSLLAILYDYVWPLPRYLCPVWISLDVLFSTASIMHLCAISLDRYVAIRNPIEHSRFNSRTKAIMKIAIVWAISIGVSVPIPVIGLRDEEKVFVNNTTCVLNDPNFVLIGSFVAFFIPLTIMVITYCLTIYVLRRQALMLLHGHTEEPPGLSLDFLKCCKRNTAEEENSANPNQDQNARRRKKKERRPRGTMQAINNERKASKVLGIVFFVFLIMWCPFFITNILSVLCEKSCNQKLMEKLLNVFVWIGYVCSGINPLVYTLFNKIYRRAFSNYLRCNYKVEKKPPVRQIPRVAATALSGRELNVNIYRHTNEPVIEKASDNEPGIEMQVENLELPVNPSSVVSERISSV
Experimental: as §1

[4] = molecular target: T2, 5-HT2B (Homo sapiens, UniProt P41595); experiment: Ca2+ flux assay, 5-HT2B; assay type: cell-based; parameters: expressed in transfected cells; conditions: Ca2+ flux
Experimental: as §1

[5] = molecular target: T3, 5-HT2A (Homo sapiens, UniProt P28223); experiment: Ca2+ flux assay, 5-HT2A; assay type: cell-based; parameters: expressed in transfected cells
Experimental: as §1

[6] = molecular target: T2, 5-HT2B; experiment: BRET Gq dissociation, 5-HT2B; assay type: cell-based; parameters: expressed in transfected cells; host or cells: HEK293T, transient; conditions: for Emax: read-out: 5-HT2B Gq Dissociation (BRET) EMAX ± SEM (%5-HT)
Experimental: (§2) After at least 18-24 hours, transfected cells were plated in poly-lysine coated 96-well white clear bottom cell culture plates in DMEM containing 1% dialyzed FBS at a density of 25-40,000 cells in 200 μL per well and incubated overnight. After approximately 20-24 hours, media was decanted and cells were washed with 60 μL of drug buffer (1×HBSS, 20 mM HEPES, pH 7.4), followed by 60 μL of drug buffer and pre-incubated in a humidified atmosphere at 37° C. before receiving drug stimulation. Drug stimulation was induced by adding 30 μL of a solution of drug (3X) diluted in McCorvy buffer (1×HBSS, 20 mM HEPES, pH 7.4, supplemented with 0.3% BSA fatty acid free, 0.03% ascorbic acid) and plates were incubated at the indicated time and temperature. Fifteen minutes before reading, 10 μL of the RLuc substrate, either coelenterazine h for β-Arrestin recruitment BRET^1 or coelenterazine 400a for Gq dissociation BRET^2 (Prolume/Nanolight, 5 μM final concentration) was addedper well. Plates were read for luminescence at 485 nm and fluorescent eYFP emission at 530 nm for BRET^1 and at 400 nm and fluorescent GFP2 emission at 510 nm for BRET2 at 1 second per well using a Mithras LB940 (Berthold). The BRET ratios of fluorescence/luminescence were calculated per well and were plotted as a function of drug concentration using Graphpad Prism 8 (Graphpad Software Inc., San Diego, CA).

[7] = molecular target: T3, 5-HT2A; experiment: cell-based; parameters: expressed in transfected cells; host or cells: HEK293T, transient; conditions: for Emax: read-out: 5-HT2A β-arrestin Emax (% 5-HT), BRET, mean ± SEM; for EC50: read-out: 5-HT2A β-arrestin recruitment pEC50 (converted)
Experimental: as §2, with “Plates were read for luminescence at 485 nm and fluorescent eYFP emission at 530 nm for BRET^1 and at 400 nm and fluorescent GFP2 emission at 510 nm for BRET2 at 1 second per well using a Mithras LB940 (Berthold).” left out

[8] = molecular target: T1, 5-HT2C; experiment: BRET Gq dissociation, 5-HT2C; assay type: cell-based; parameters: expressed in transfected cells; host or cells: HEK293T, transient; conditions: for Emax: read-out: 5-HT2C Gq Dissociation (BRET) EMAX ± SEM (%5-HT)
Experimental: as §2, with “Plates were read for luminescence at 485 nm and fluorescent eYFP emission at 530 nm for BRET^1 and at 400 nm and fluorescent GFP2 emission at 510 nm for BRET2 at 1 second per well using a Mithras LB940 (Berthold).” left out

[9] = molecular target: T3, 5-HT2A; experiment: cell-based; parameters: expressed in transfected cells; host or cells: HEK293T, transient; conditions: for Emax: read-out: 5-HT2A Gq Emax (% 5-HT), BRET, mean ± SEM
Experimental: as §2, with “Plates were read for luminescence at 485 nm and fluorescent eYFP emission at 530 nm for BRET^1 and at 400 nm and fluorescent GFP2 emission at 510 nm for BRET2 at 1 second per well using a Mithras LB940 (Berthold).” left out

[10] = read-out: HTR ED50 μmol/kg (95% CI), SC, except DOI and 25D-NBOMe IP
[11] = read-out: HTR ED50 mg/kg (95% CI), SC, except DOI and 25D-NBOMe IP
[12] = BRET, mean ± SEM, read-out: 5-HT2A Gq dissociation pEC50 (converted)
[13] = read-out: 5-HT2B Gq Dissociation (BRET) pEC50 ± SEM (converted)
[14] = read-out: 5-HT2C Gq Dissociation (BRET) pEC50 ± SEM (converted)
[15] = SC, except DOI and 25D-NBOMe IP

T2 sequence (P41595 whole entry): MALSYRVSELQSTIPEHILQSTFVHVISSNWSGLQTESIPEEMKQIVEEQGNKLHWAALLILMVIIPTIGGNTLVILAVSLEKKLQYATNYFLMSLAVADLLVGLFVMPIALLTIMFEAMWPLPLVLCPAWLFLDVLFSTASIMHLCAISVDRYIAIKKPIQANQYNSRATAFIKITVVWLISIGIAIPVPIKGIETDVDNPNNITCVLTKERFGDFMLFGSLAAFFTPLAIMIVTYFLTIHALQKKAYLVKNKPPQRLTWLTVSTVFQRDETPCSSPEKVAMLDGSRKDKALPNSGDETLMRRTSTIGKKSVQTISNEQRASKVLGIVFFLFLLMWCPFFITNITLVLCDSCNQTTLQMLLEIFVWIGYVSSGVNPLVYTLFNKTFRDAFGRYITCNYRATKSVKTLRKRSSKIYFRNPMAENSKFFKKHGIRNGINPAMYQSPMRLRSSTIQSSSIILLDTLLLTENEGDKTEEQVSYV
T3 sequence (P28223 whole entry): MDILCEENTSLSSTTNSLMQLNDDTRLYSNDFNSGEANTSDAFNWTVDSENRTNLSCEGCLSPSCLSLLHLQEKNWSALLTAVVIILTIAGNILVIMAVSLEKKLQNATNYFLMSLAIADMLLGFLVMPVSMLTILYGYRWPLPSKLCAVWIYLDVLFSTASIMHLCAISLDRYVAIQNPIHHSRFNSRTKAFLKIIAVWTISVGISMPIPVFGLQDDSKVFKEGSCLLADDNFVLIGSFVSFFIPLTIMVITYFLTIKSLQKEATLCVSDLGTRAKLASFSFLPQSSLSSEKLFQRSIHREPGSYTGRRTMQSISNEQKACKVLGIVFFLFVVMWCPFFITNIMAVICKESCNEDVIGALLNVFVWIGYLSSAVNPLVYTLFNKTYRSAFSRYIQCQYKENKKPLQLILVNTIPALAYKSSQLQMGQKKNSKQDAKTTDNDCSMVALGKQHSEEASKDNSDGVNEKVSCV

Compound	Induction of the HTR in mice (in words) [1]	Max HTR response during a 30-min assessment (maximum counts ÷ baseline response) [1]	ED50 [1, 11] [mg/kg]	Emax [6] [%]	Emax [7] [%]	Emax [8] [%]	Emax [9] [%]	5-HT2B Gq Dissociation (BRET) EMAX ± SEM (%5-HT) [6]	5-HT2B Gq Dissociation (BRET) pEC50 ± SEM [6]	EC50 ([7]; BRET, mean ± SEM) [nM]	5-HT2C Gq Dissociation (BRET) EMAX ± SEM (%5-HT) [8]	5-HT2C Gq Dissociation (BRET) pEC50 ± SEM [8]	further results
COc1cc([N+](=O)[O-])c(OC)cc1CCNCc1ccccc1OC(F)F [25N-NBOCF2H (11), {[2-(difluoromethoxy)phenyl]methyl}[2-(2,5-dimethoxy-4-nitrophenyl)ethyl]amine]	lacked a HTR; also recorded: failed to induce a HTR	13.5-fold increase	1.81										ED50 [1, 10]: 4.32 µmol/kg; 5-HT2A/5-HT2c Selectivity Factor ΔLog(Emax/EC50) [2]: 1.9; EC50 ([3]; 5-HT2C EC50, nM): 3.99 nM; Emax ([3]; read-out: 5-HT2C Emax % 5-HT): 101 ± 1%; 5-HT2B EC50, nM [4]: No activity; Emax ([4]; read-out: 5-HT2B Emax % 5-HT): < 10%; EC50 ([5]; 5-HT2A EC50, nM, Ca2+ flux): 1.92 nM; 5-HT2A Emax % 5-HT ([5]; Ca2+ flux): 95 ± 1 % 5-HT; Emax ([5]; read-out: 5-HT2A Emax % 5-HT, Ca2+ flux): ≤ 77%
COc1cc(OC)c(OC)cc1CCNCc1cccc(I)c1 [(53), N-(3-iodobenzyl)-2-(2,4,5-trimethoxyphenyl)-ethan-1-amine]	failed to induce the HTR	1.1-fold increase	> 30	20.3 ± 2.8	82.7 ± 5.4	91.5 ± 3.2	50.1 ± 1.9						EC50 [6]: 0.724 nM; EC50 [8]: 15.1 nM
COc1cc(OC)c(OC)cc1CCNCc1ccccc1-c1cccs1 [(59), N-(2-(thiophen-2-yl)benzyl)-2-(2,4,5-trimethoxyphenyl)-ethan-1-amine]	lacked a HTR	1.6-fold increase	> 30		100 ± 3.5		34.9 ± 1.6	No activity	No Activity	8.51	No Activity	No Activity	EC50 [9, 12]: 24 nM
COc1cc(OC)c(OC)cc1CCNCc1ccccc1OCc1ccccc1 [(61)]	lacked a HTR; also recorded: do not induce the HTR	1.4-fold increase	> 30		72.9 ± 4.2		< 10	No activity	No activity	3.31	No Activity	No Activity	5-HT2A Gq dissociation pEC50 ([9]; BRET, mean ± SEM): No activity
COc1cc(OC)c(OC)cc1CCNCc1ccccc1-c1ccc(O)cc1 [(64)]		2.1-fold increase	> 30	29.2 ± 10.6	80.5 ± 5.5	80.6 ± 9.8	43.6 ± 2.5			11.7			EC50 [6, 13]: 3020 nM; EC50 [8, 14]: 1700 nM; EC50 [9]: 617 nM
COc1cc(CCN)c(OC)cc1I [Compound 2C-I, reference compound]		13.8-fold increase						101.0 ± 2.1 %5-HT	7.72 ± 0.07		106.9 ± 1.5 %5-HT	9.34 ± 0.05	HTR ED50 μmol/kg (95% CI) [1, 15]: 2.42 (1.46-4.02) μmol/kg; HTR ED50 mg/kg (95% CI) [1, 15]: 0.83 (0.50-1.38) mg/kg; 5-HT2A β-arrestin Emax (% 5-HT) ([7]; BRET, mean ± SEM): 74.3 ± 1.6 % 5-HT; 5-HT2A β-arrestin recruitment pEC50 ([7]; BRET, mean ± SEM): 8.25 ± 0.07; 5-HT2A Gq Emax (% 5-HT) ([9]; BRET, mean ± SEM): 93.4 ± 1.4 % 5-HT; 5-HT2A Gq dissociation pEC50 ([9]; BRET, mean ± SEM): 8.83 ± 0.05
COc1cc(CCNCc2ccccc2OC)c(OC)cc1I [Compound 25I-NBOMe, reference compound]		16.0-fold increase	0.078	78.6 ± 2.6	137 ± 3.7	124 ± 3.1				0.525			EC50 [6, 13]: 3.39 nM; ED50 [1, 10]: 0.17 µmol/kg; EC50 [8, 14]: 0.0977 nM; 5-HT2A Gq Emax (% 5-HT) ([9]; BRET, mean ± SEM): 99.8 ± 1.2 % 5-HT; EC50 [9, 12]: 0.355 nM

Reference: US20240254087A1, “SELECTIVE, PARTIAL, AND ARRESTIN-BIASED 5-HT2A AGONISTS WITH UTILITY IN VARIOUS DISORDERS” (Saint Joseph's University, priority 2021, published 2024)
